This is an account of results in patent US5688507A, “Methods and compositions for inhibiting thrombogenesis” (Hamilton Civic Hospitals Research Development, Inc., priority 1995, dated 1997).

One test has as its system fibrin. To be noted: stated without experiment; cited from earlier work.
Another test has as its system fibrin I (desAA fibrin). Description: Solid-phase binding of 125I-thrombin to fibrin-coated microtiter wells (ovalbumin-coated wells as non-specific control). To be noted: increasing concentrations, 2 h at 37° C., ovalbumin-well binding subtracted (FIG. 4). How it is done:
To examine the ability of various agents to displace thrombin from fibrin, a solid-phase system was developed wherein fibrin was immobilized on the surface of a microtiter plate well. Radiolabeled thrombin was then bound to the fibrin-coated surface, and after washing, the ability of various agents to displace the bound thrombin was evaluated. In this model, the binding of thrombin to immobilized ovalbumin serves as an index of nonspecific binding. The details of the model are as follows: after adding 100 μl of fibrinogen or ovalbumin (each at a concentration of 1 mg/ml) to the wells of microtiter plate, the plates were incubated for 18 hours at 4° C. The wells were then washed three times with 250 μl aliquots of phosphate buffered saline, pH 7.4, containing 0.1% ovalbumin and 6 mg/ml PEG 8,000 (POP buffer). Based on preliminary studies using radiolabeled fibrinogen or ovalbumin, each well bound 1.3±0.2 μg of fibrinogen, or 1.0±0.1 μg of ovalbumin. […] The reptilase completely converted the immobilized fibrinogen to fibrin I because quantitative amounts of fibrinopeptide A (2 mol fibrinopeptide A/mol of bound fibrinogen) was recovered in the supernatant buffer. […] At the end of the incubation period, the wells were washed three times and then counted to determine the concentration of thrombin bound to the fibrin-coated (+) or ovalbumin-coated (.largecircle.) wells (FIG. 4). […]

With thrombin, the “native binding affinity between fibrin and thrombin in thrombus” value with fibrin is “about 5×10^-5 M^-1”. The “specific binding to fibrin-coated wells” value in the test on fibrin I (desAA fibrin) is given as “binds to fibrin in a saturable manner”.
